Assay results reported in patent publication US20130302825A1, “USES OF MACROPHAGE MANNOSE RECEPTOR TO SCREEN COMPOUNDS AND USES OF THESE COMPOUNDS” (Merck, priority 2010, published 2013).

Biological target: T1, mannose receptor (Rattus norvegicus, UniProt A0A8I5XVS2)
T1 construct: NR8383 rat alveolar macrophages were obtained from ATCC; host or cells: NR8383 rat alveolar macrophages
T1 sequence (A0A8I5XVS2 1-1431): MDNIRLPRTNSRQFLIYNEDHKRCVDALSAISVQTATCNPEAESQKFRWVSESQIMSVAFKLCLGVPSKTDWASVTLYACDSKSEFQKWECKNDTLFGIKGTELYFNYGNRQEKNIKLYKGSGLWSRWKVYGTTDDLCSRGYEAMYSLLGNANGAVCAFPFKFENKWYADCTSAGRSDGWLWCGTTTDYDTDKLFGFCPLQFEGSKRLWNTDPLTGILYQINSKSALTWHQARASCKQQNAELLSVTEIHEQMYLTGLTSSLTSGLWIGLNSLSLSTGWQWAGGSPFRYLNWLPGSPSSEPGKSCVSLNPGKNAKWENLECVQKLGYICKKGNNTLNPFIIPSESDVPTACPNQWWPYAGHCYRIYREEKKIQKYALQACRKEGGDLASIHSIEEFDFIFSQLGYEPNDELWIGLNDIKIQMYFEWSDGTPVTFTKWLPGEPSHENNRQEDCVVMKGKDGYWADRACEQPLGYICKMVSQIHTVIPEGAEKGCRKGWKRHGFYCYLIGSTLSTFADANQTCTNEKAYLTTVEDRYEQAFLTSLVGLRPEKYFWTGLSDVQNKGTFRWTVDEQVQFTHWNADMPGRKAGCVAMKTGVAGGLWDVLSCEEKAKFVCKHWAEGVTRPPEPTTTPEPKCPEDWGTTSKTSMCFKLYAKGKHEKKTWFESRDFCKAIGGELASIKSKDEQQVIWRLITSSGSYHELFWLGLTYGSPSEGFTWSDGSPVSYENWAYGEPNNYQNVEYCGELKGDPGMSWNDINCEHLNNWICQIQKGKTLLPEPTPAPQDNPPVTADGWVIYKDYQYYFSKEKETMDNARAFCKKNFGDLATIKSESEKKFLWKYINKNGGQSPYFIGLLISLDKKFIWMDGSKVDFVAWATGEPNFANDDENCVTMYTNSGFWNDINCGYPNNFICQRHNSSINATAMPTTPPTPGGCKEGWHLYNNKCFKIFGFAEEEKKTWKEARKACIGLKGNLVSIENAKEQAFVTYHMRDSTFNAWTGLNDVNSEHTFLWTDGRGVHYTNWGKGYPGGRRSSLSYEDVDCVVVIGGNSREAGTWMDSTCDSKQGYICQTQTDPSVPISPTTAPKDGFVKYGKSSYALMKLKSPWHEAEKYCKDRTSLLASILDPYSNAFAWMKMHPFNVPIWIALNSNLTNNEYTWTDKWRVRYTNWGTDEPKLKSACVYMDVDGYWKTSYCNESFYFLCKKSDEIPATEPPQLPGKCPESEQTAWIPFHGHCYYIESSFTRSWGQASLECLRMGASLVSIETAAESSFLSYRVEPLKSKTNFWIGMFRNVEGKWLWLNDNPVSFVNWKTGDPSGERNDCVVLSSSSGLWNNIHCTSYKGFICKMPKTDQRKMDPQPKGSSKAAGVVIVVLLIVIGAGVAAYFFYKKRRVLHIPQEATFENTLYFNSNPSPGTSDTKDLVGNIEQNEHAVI
Assay: Uptake of Alexa488-SI-0052 in NR8383 in the presence of competing sugars
Format: cell-based
Conditions: 250 nM Alexa488-SI-0052, varying sugar concentrations; FIG. 1b
Description: NR8383 rat alveolar macrophages were obtained from ATCC and cultured in gelatin coated flasks in F12K medium +15% heat inactivated FBS+antibiotics. For uptake experiments, NR8383 were seeded in gelatin coated 96 well plates and allowed to reach confluence. […] Each condition was carried out in triplicate. […] Cells were transferred to V-bottom 96 well plates and centrifuged (800 g, 7 min, 4C) to collect. Pellets were washed with cold 5 mM EDTA and again centrifuged. Cells were then resuspended in 1% paraformaldehyde in PBS and stored at 4C in the dark until analysis.
Uptake of Alexa488-SI-0052, as measured by cellular fluorescence, was assessed using flow cytometry (FACSCalibur). The geometric mean of fluorescence for 5000-10000 cells was measured for each sample. Mannose specific uptake was taken to be the difference between total uptake (without mannan) and the uptake in the presence of mannan (non-specific uptake).
The uptake of Alexa488-SI-0052 was measured, as described above, in the presence of various sugars known to have varying affinities for the mannose receptor. NR8383 were incubated with a constant concentration of Alexa488-SI-0052 (250 nM, chosen because this concentration lies on the concentration dependent portion of the Alexa488-SI-0052 uptake curve) and varying concentrations of α-methyl mannose (α-MM), glucose and galactose.

| Compound | Interference with Alexa488-SI-0052 uptake (rank order) |
| --- | --- |
| O=C[C@H](O)[C@@H](O)[C@@H](O)[C@H](O)CO [galactose] | then galactose |
| COC1O[C@H](CO)[C@@H](O)[C@H](O)[C@@H]1O (stereo partly drawn) [α-MM, α-methyl mannose] | interferes the most |
